The record followed here is patent US12065445B2, “CDK2 inhibitors and methods of using the same” (Cedilla Therapeutics, Inc., priority 2021, dated 2024).

The subject of the assay is Kuramochi cells. As to the kind of experiment: BrdU Cell Proliferation Assay. The settings on record: read-out: BrdU - KURAMOCHI.1: IC50. The class given is cell-based. As to the method:
A BrdU assay was used as a measure of proliferation based on the DNA replication process of proliferating cells. BrdU, a pyrimidine analog, is added to the cell culture and incorporated into the DNA of proliferating cells. The presence of the BrdU analog was then measured through a colorimetric ELISA. After fixation and permeabilization of cells, peroxidase-conjugated antibody recognizing BrdU is added and allowed to incubate, followed by thorough washing to remove unbound antibody. In order to quantify the amount of bound antibody, peroxidase substrate is added and produces a color that can be measured at 450 nm.
On day −1, Kuramochi cells (Sekisui XenoTech JCRB0098) were seeded at 2,000 cells/well in columns 2-12 of a 96 well plate (Corning, CLS3596) in 150 μL media and allowed to adhere overnight at 37 degree with 5% CO2.
On day 0, the source plate was prepared by adding 10 mM compounds and performing 3-fold serial dilutions for a 10-point dose response of each compound. Using a multichannel pipette, 2 μL of the contents of the source plate were stamped into an intermediate plate with 500 μL of RPMI 1640 Media, GlutaMAX Supplement (Life Technologies, 61870127) in each well of a Nunc 96 DeepWell™ plate, non-treated 96 DeepWell plate, 2 mL/well, sterile, natural, 60/cs (Sigma Z717274) and mixed thoroughly. 50 μL from each well of this intermediate plate were added to 4 wells of a 96-well plate with previously seeded Kuramochi cells.
On day 4, the plates were developed using the BrdU ELISA Cell Proliferation Assay according to manufacturer's instructions (Roche, 11647229001). Briefly, BrdU was diluted 1:100 in Gibco®, OptiMEM® and 20 μL/well was added, shaken for 10 minutes at 350 rpm, and then returned to the incubator for 1 hour. Following incubation, the medium was discarded, and the cells were fixed by adding 200 μL of Fix/Denature solution. The anti-BrdU peroxidase antibody was diluted 1:1000 in OptiMEM, added at 100 μL/well, and incubated while shaking (350 rpm) for one hour. Three washes with PBS were performed to remove any unbound antibody, followed by the addition of 100 μL of substrate solution to each well. 25 μL/well of 1M sulfuric acid solution was then added to halt the reaction, and plates were read out using an Envision spectrophotometer (Perkin Elmer) set to read 450 nm absorbance. Background absorbance values from empty wells were subtracted from all samples and then normalized to DMSO treated wells.
As a reminder, the IC50 is the point on the concentration scale where inhibition reaches its midpoint. As for `CNC(=O)[C@@H](NC(=O)[C@@H]1CN(C(=O)c2cncs2)CC12CN(C(=O)C(C)(C)C)C2)[C@@H](C)OCC1CCCCC1` [I-186A], the IC50 lay within 0.5 to 5 µM.

For the molecule `CNC(=O)[C@@H](NC(=O)[C@@H]1CN(C(=O)c2cnn(Cc3ccccc3)c2)CC12CN(C(=O)[C@H]1CC1(C)C)C2)[C@@H](C)OCc1ccccc1O` [I-251], the IC50 was greater than 10 µM.

With `C[C@@H](OCC1CCC(F)(F)CC1)[C@H](NC(=O)[C@H]1CN(C(=O)c2cn[nH]c2)CC12CN(C(=O)C1(C(F)(F)F)CC1)C2)C(=O)N1CCC(F)(F)CC1` [I-188B], the IC50 was greater than 10 µM.

Regarding `CNC(=O)[C@@H](NC(=O)[C@H]1CN(C(=O)c2cnn(Cc3ccc(F)cc3)c2)CC12CN(C(=O)[C@H]1CC1(C)C)C2)[C@@H](C)OCC1CCC(F)(F)CC1` [I-167], the IC50 was greater than 10 µM.

Consider `CNC(=O)[C@@H](NC(=O)[C@H]1CN(C(=O)c2cnn(Cc3ccccc3)c2)CC12CN(C(=O)C(C)(C)C#N)C2)[C@@H](C)OCc1ccccc1` [I-76B], for which the IC50 was greater than 10 µM.

As to `C[C@@H](OCC1CCCCC1)[C@H](NC(=O)[C@H]1CN(C(=O)c2cn[nH]c2)CC12CN(C(=O)[C@H]1CC1(C)C)C2)C(=O)N1CCCCC1` [I-151B], the IC50 is greater than 10 µM.

Turning to `C[C@H](CNC(=O)C1CN(C(=O)c2cnn(Cc3ccccc3)c2)CC12CN(C(=O)C1CC1(C)C)C2)OCc1ccccc1` (stereo partly shown) [I-7], the IC50 is greater than 10 µM.

As to `COCCNC(=O)[C@@H]1CN(C(=O)c2cnn(Cc3ccccc3)c2)CC12CN(C(=O)[C@H]1CC1(C)C)C2` [I-122A], the half-inhibitory concentration (IC50) was greater than 10 µM.

For `CNC(=O)[C@@H](NC(=O)[C@H]1CN(C(=O)c2cnn(Cc3ccccc3)c2)CC12CN(C(=O)C(C)(C)F)C2)[C@@H](C)OCc1ccccc1` [I-90B], the IC50 is greater than 10 µM.

Regarding `CC1(C)C[C@@H]1C(=O)N1CC2(CN(C(=O)c3cnn(Cc4ccccc4)c3)C[C@H]2C(=O)NCCOCc2ccccc2)C1` [I-96A], the IC50 is greater than 10 µM.

As to `CNC(=O)[C@@H](NC(=O)[C@@H]1CN(C(=O)c2cnn(Cc3ccccc3)c2)CC12CN(C(=O)[C@H]1CC1(C)C)C2)[C@@H](C)OCc1ccncc1` [I-244], the IC50 is greater than 10 µM.

Consider `CNC(=O)[C@@H](NC(=O)[C@H]1CN(C(=O)c2cnn(Cc3ccccc3)c2)CC12CN(C(=O)[C@H]1CC1(C)C)C2)[C@@H](C)OCC1CCCCC1` [I-123B], for which the IC50 was greater than 10 µM.

Take `CNC(=O)[C@@H](NC(=O)[C@H]1CN(C(=O)c2cnn(C)c2)CC12CN(C(=O)[C@H]1CC1(C)C)C2)[C@@H](C)OCc1ccccc1` [I-33B]: the IC50 is greater than 10 µM.

`CNC(=O)[C@@H](NC(=O)[C@H]1CN(C(=O)c2scnc2C(C)(C)C)CC12CN(C(=O)[C@H]1CC1(C)C)C2)[C@@H](C)OCC1CCCCC1` [I-231B]: the IC50 is greater than 10 µM.

As for `CNC(=O)[C@@H](NC(=O)C1CN(Cc2n[nH]c3ccccc23)CC12CN(C(=O)[C@H]1CC1(C)C)C2)[C@@H](C)OCc1ccccc1` (stereo partly shown) [I-159], the IC50 is greater than 10 µM.

Consider `CNC(=O)[C@@H](NC(=O)[C@@H]1CN(C(=O)c2ccncc2)CC12CN(C(=O)[C@H]1CC1(C)C)C2)[C@@H](C)OCc1ccccc1` [I-46A], for which the IC50 was greater than 10 µM.

As to `CC1(C)C[C@@H]1C(=O)N1CC2(CN(C(=O)c3cnn(Cc4ccccc4)c3)C[C@@H]2C(=O)N2CCCC(Cc3ccccc3)C2)C1` (stereo partly shown) [I-91B], the 50% inhibitory concentration (IC50) is greater than 10 µM.

Take `C[C@@H](OCC1CCCCC1)[C@H](NC(=O)[C@@H]1CN(C(=O)c2cnn(Cc3ccccc3)c2)CC12CN(C(=O)[C@H]1CC1(C)C)C2)C(=O)N1CCC[C@H]1CN` [I-220]: the IC50 is greater than 10 µM.

Take `CC1(C)C[C@@H]1C(=O)N1CC2(CN(C(=O)c3cnn(Cc4ccccc4)c3)C[C@H]2C(=O)N2CCC[C@H](OCC3CCCCC3)C2)C1` [I-236]: the IC50 is greater than 10 µM.

For the molecule `C[C@@H](OCc1ccccc1)[C@H](NC(=O)C1CN(C(=O)c2cnn(Cc3ccccc3)c2)CC12CN(C(=O)[C@H]1CC1(C)C)C2)C(=O)N1CC2(CCC2)C1` (stereo partly shown) [I-106], the IC50 was in the range of 0.5 to 5 µM.

As for `CNC(=O)[C@@H](NC(=O)[C@@H]1CN(C(=O)c2cnn(Cc3ccccc3)c2)CC12CN(C(=O)[C@H]1CC1(C)C)C2)[C@@H](C)OCC(F)(F)F` [I-204], the IC50 was greater than 10 µM.

Regarding `CC1(C)C[C@@H]1C(=O)N1CC2(CN(C(=O)c3cnn(Cc4ccccc4)c3)C[C@H]2C(=O)N2CCC(Cc3ccccc3)CC2)C1` [I-58A], the IC50 was greater than 10 µM.

For the molecule `CNC(=O)[C@@H](NC(=O)[C@@H]1CN(C(=O)c2cnn(Cc3ccccc3)c2)CC12CN(C(=O)C1(c3ccc(C(C)(C)C)cc3)CC1)C2)[C@@H](C)OCc1ccccc1` [I-80A], the IC50 is greater than 10 µM.

Regarding `CNC(=O)[C@H](COCc1ccccc1)NC(=O)[C@H]1CN(C(=O)c2cnn(Cc3ccccc3)c2)CC12CN(C(=O)C(C)(C)C)C2` [I-100B], the IC50 was greater than 10 µM.

In the case of `CNC(=O)[C@@H](NC(=O)[C@H]1CN(C(=O)c2sc(Cl)nc2C)CC12CN(C(=O)[C@H]1CC1(C)C)C2)[C@@H](C)OCC1CCCCC1` [I-208B], the IC50 was greater than 10 µM.

With `CNC(=O)[C@@H](NC(=O)[C@@H]1CN(C(=O)c2cnn(Cc3ccccc3)c2)CC12CN(C(=O)[C@H]1CC1(C)C)C2)[C@@H](C)OCC1CCC1` [I-144A], the 50% inhibitory concentration (IC50) is greater than 10 µM.

As for `CNC(=O)[C@@H](NC(=O)[C@@H]1CN(C(=O)c2n[nH]c3ccccc23)CC12CN(C(=O)[C@H]1CC1(C)C)C2)[C@@H](C)OCc1ccccc1` [I-112A], the IC50 is greater than 10 µM.

Take `CNC(=O)[C@@H](NC(=O)[C@H]1CN(C(=O)c2cnn(Cc3ccccc3)c2)CC12CN(C(=O)C1(CCOC)CC1)C2)[C@@H](C)OCc1ccccc1` [I-102B]: the IC50 is greater than 10 µM.

`COC[C@H]1CCCN(C(=O)[C@@H](NC(=O)[C@@H]2CN(C(=O)c3cncs3)CC23CN(S(=O)(=O)C(C)(C)C)C3)[C@@H](C)OCC2CCCCC2)C1` [I-447, (S)-2-(tert-butylsulfonyl)-N-((2S,3R)-3-(cyclohexylmethoxy)-1-((S)-3-(methoxymethyl)piperidin-1-yl)-1-oxobutan-2-yl)-6-(thiazole-5-carbonyl)-2,6-diazaspiro[3.4]octane-8-carboxamide]: the IC50 is greater than 10 µM.

As to `COC(=O)[C@@H](CO)NC(=O)[C@H]1CN(C(=O)c2cnn(Cc3ccccc3)c2)CC12CN(C(=O)[C@H]1CC1(C)C)C2` [I-187B], the IC50 was greater than 10 µM.

For `CN(C(=O)[C@@H]1CCCN(C(=O)[C@@H]2CN(C(=O)c3cnn(Cc4ccccc4)c3)CC23CN(C(=O)[C@H]2CC2(C)C)C3)C1)C1CCCCC1` [I-181], the IC50 was greater than 10 µM.

For `CNC(=O)[C@@H](NC(=O)[C@@H]1CN(C(=O)c2cnn(C)c2)CC12CN(C(=O)[C@H]1CC1(C)C)C2)[C@@H](C)OCc1ccccc1` [I-33A], the IC50 is greater than 10 µM.

As to `CC1(C)C[C@@H]1C(=O)N1CC2(CN(C(=O)c3cnn(Cc4ccccc4)c3)C[C@H]2C(=O)N2CCCC(Cc3ccccc3)C2)C1` (stereo partly shown) [I-91A], the IC50 is greater than 10 µM.

`CC1(C)C[C@@H]1C(=O)N1CC2(CN(C(=O)c3cnn(Cc4ccccc4)c3)C[C@H]2C(=O)N[C@H]2CCCN(CC3CCCCC3)C2)C1` [I-183]: the IC50 was greater than 10 µM.

For `CNC(=O)[C@@H](NC(=O)[C@H]1CN(C(=O)c2cnn(CC3CC3)c2)CC12CN(C(=O)CC1CC1)C2)[C@@H](C)OCc1ccccc1` [I-53B], the 50% inhibitory concentration (IC50) was greater than 10 µM.

Regarding `CC1(C)C[C@@H]1C(=O)N1CC2(CN(C(=O)c3cnn(Cc4ccccc4)c3)C[C@H]2C(=O)N2CCC[C@@H](OCC3CCCCC3)C2)C1` [I-254], the IC50 is greater than 10 µM.

As for `CNC(=O)[C@@H](NC(=O)[C@H]1CN(Cc2cnco2)CC12CN(C(=O)[C@H]1CC1(C)C)C2)[C@@H](C)OCc1ccccc1` [I-78B], the IC50 is greater than 10 µM.
